Results from patent US8648099B2 (Hoffmann-La Roche Inc., priority 2011, dated 2014).
Like-named read-outs stand apart in the source and are kept apart here.

What was measured:
human CB2 receptor = biological target: T1, human CB2 receptor (Homo sapiens, UniProt P34972); test: CB2 receptor affinity ([3H]-CP-55,940 displacement, HEK cell membranes); assay type: binding; settings: displacement of [3H]-CP-55,940 at 10 μM
T1 construct: expressed in transfected cells; host or cells: human embryonic kidney (HEK) cells, Semliki Forest Virus system, membrane preparations
Method: (§1) The affinity of the compounds of the invention for cannabinoid CB2 receptors was determined using membrane preparations of human embryonic kidney (HEK) cells in which the human CB2 receptor is transiently transfected using a Semliki Forest Virus system in conjunction with [^3H]-CP-55,940 as radioligand. After incubation of freshly prepared cell membrane preparation with the [^3H]-ligand, with or without addition of compounds of the invention, separation of bound and free ligand was performed by filtration over glass fiber filters. Radioactivity on the filter was measured by scintillation counting.
(§2) The ability of the compounds to displace the radioligand [^3H]-CP-55,940 was measured at a concentration of 10 μM and values provided as [% inhibition @ 10 μM] both for the CB1 and CB2 receptor assay, The lower % inhibition is, the lower the likelihood of side effects based on CB1 or CB2 receptor inhibition is.

ABCA1 protein = test: Detection of upregulation of ABCA1 protein in cells (ApoA-I binding, high content imaging); assay type: cell-based; settings: THP-1 macrophage cells; for % increase of ABCA1 at 3 μM: compound at 3 μM, 24 hrs; for EC50: 24 hrs compound incubation, read-out: EC50 [μM] ABCA1 protein increasing efficacy
Method: The ability of compounds of the invention to increase the level of ABCA1 protein is determined in replicate cultures of THP-1 macrophage cells in 96-well microplates. Cells are plated at an initial density of 100,000 cells/well in 100 μl medium and differentiated to adherent macrophages with the addition of PMA (100 nM) for 68 hrs in 10% fetal bovine serum, 3 μl/L of b-mercaptoethanol, RPMI-1640 medium. Then, cells are incubated with RPMI-1640 medium containing 1% FCS, 25 μg/ml acetylated LDL, for 24 hours at 37° C. Following incubation with acetylated LDL, cells are washed twice with 50 μl PBS and incubated with 100 μl of RPMI-1640 medium containing the compound of interest solubilized in DMSO for an additional 24 hrs. The final DMSO concentration in presence of cells is maintained at 0.5%. ApoA-I binding assay using High Content Image Analysis is initiated by replacing with fresh medium, RPMI without Phenol Red, 0.2% BSA containing AlexaFluor®647 labeled ApoA-I for 2 h/37° C./5% CO2. Then, cells are fixed with 4% Formaldehyde in PBS (15 min, RT). Following Nuclei are stained with Hoechst solution (3 μM PBS) and Cytoplasm with Cell Mask Blue (2 μg/ml PBS), 15 min, RT. Finally the stained cells are fixed with a second round of formaldehyde treatment. Fixed stained cells are washed and kept in PBS at 4° C. and can be read immediately until one month after preparation.
The Alexa Fluor 647-labeled Apolipoprotein A-I (20 nM) was prepared as follows: Human recombinant Apolipoprotein A-I (ApoA-I) was exchanged to a buffer of 0.02 M NaHCO3 at pH 8.2 on an NAP desalting column (GE Healthcare) and brought to a concentration to 40 μM (1.13 mg/ml) by adjustment with the same buffer. The ApoA-I was fluorescently labeled by incubation with Alexa Fluor carboxylic acid succimidyl ester (Alexa Fluor 647, Invitrogen A-20006) at a 2:1 molar ratio (Alexa to ApoA-I) for 1 h under shaking at RT. The remaining unconjugated label was removed by buffer exchange to 0.02M NaHCO3 at pH 8.2.
Imaging and data collection were performed on an OPERA confocal microplate imaging reader using a 20× water immersion objective and UV360 or 405 laser to identify the cell nuclei and a 635 laser to identify the fluorescent ApoA-I. Eight fields of view are captured per well. Image capture and analysis was performed with the Acapella software. Background fluorescence detected in control wells without ApoA-I was subtracted.
Using XLfit3 program (ID Business Solutions Ltd. UK), the model 205 for Dose Response One Site is used to calculate the EC50 values. […] More particularly, the compounds of the present invention have EC50 values in a range of 0.1 μM to 3 μm.

human CB1 receptor = biological target: T2, human CB1 receptor (Homo sapiens, UniProt P21554); test: CB1 receptor affinity ([3H]-CP-55,940 displacement, HEK cell membranes); assay type: binding; settings: read-out: CB1 receptor affinity [% inhibition @ 10 μM]
T2 construct: expressed in transfected cells; host or cells: human embryonic kidney (HEK) cells, Semliki Forest Virus system, membrane preparations
Method: as §1, with “cannabinoid” for “cannabinoid CB2”, “CB1” for “CB2”, “[3H]-CP-55,940” for “[^3H]-CP-55,940”
as §2

[1] = displacement of [3H]-CP-55,940 at 10 μM

T2 sequence (P21554 whole entry): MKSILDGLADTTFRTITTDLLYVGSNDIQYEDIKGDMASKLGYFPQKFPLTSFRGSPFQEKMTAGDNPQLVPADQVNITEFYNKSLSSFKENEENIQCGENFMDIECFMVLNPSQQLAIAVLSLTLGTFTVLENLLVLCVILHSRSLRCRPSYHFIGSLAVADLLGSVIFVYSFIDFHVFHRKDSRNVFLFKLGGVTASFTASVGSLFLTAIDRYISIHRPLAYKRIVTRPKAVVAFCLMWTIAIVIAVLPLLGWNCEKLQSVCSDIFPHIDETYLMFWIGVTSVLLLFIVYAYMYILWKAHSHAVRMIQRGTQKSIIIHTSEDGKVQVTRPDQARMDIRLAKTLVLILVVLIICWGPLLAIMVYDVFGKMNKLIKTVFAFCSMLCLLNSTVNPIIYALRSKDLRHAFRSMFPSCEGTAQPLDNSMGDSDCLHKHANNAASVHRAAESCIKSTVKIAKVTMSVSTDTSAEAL
T1 sequence (P34972 whole entry): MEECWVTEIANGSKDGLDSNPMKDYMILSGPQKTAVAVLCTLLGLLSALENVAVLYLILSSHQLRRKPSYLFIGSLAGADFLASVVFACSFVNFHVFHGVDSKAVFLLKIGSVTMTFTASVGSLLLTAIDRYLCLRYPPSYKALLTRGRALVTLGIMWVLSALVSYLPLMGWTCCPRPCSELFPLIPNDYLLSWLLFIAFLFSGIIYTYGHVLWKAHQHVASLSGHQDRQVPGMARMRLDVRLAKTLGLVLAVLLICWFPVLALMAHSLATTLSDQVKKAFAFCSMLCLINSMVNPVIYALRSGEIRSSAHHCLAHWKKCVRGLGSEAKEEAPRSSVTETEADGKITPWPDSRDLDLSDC

Compound | inhibition at 10 µM (human CB2 receptor) [%] | % increase of ABCA1 at 3 μM (ABCA1 protein) [%@ 3 μM] | inhibition at 10 µM (human CB1 receptor; [1]) [%] | EC50 (ABCA1 protein) [µM] | inhibition at 10 µM (human CB1 receptor) [%]
O=C(NN1CCCC1)c1cnc(OCC(F)(F)F)c(C2CCCCC2)c1 [Example 21, 5-cyclohexyl-N-(pyrrolidin-1-yl)-6-(2,2,2-trifluoroethoxy)-3-pyridinecarboxamide] | -17 | >45 | 39 | – | –
O=C(NN1CCOCC1)c1cnc(OCC(F)(F)F)c(C2CCCCC2)c1 [Example 19, 5-cyclohexyl-N-morpholino-6-(2,2,2-trifluoroethoxy)-3-pyridinecarboxamide] | -23 | – | 29 | 5.39 | –
CN(NC(=O)c1cnc(OCC(F)(F)F)c(C2CCCC2)c1)c1ccc(Cl)nn1 [Example 16, N′-(6-chloropyridazin-3-yl)-5-cyclopentyl-N′-methyl-6-(2,2,2-trifluoroethoxy)-3-pyridinecarboxylic acid hydrazide] | -5 | – | 21 | 1.17 | –
O=C(NN1CCC(CCO)CC1)c1cnc(OCC(F)(F)F)c(-c2ccc(Cl)cc2)c1 [Example 24, 5-(4-chlorophenyl)-N-(4-(2-hydroxyethyl)piperidin-1-yl)-6-(2,2,2-trifluoroethoxy)-3-pyridinecarboxamide] | -8 | >45 | 45 | – | –
N#Cc1ccc(-c2cc(C(=O)NN3CCC(CCO)CC3)cnc2OCC(F)(F)F)cc1 [Example 38, 5-(4-cyano-phenyl)-N-[4-(2-hydroxy-ethyl)-piperidin-1-yl]-6-(2,2,2-trifluoro-ethoxy)-nicotinamide] | -6 | – | 37 | 0.15 | –
CN(NC(=O)c1cnc(OC2CCC2)c(-c2ccco2)c1)c1ccc(Cl)nn1 [Example 51, 6-cyclobutoxy-5-furan-2-yl-nicotinic acid N′-(6-chloro-pyridazin-3-yl)-N′-methyl-hydrazide] | -4 | – | – | 0.47 | 30
CN(NC(=O)c1cnc(OC2CCC2)c(-c2ccco2)c1)c1ccncc1 [Example 52, 6-cyclobutoxy-5-furan-2-yl-nicotinic acid N′-methyl-N′-pyridin-4-yl-hydrazide] | 19 | – | 31 | 5.8 | –
O=C(NNc1ccc(F)cc1)c1cnc(OCC2CC2)c(C2CC2)c1 [Example 42] | 9 | – | 11 | 3.2 | –
CN1CCN(NC(=O)c2cnc(OCC(F)(F)F)c(-c3ccc(Cl)cc3)c2)CC1=O [Example 27, 5-(4-chlorophenyl)-N-(4-methyl-3-oxopiperazin-1-yl)-6-(2,2,2-trifluoroethoxy)-3-pyridinecarboxamide] | -11 | – | 25 | 2.39 | –
O=C(NN1CCC(CO)CC1)c1cnc(OCC(F)(F)F)c(-c2ccc(Cl)cc2)c1 [Example 26, 5-(4-chlorophenyl)-N-(4-(hydroxymethyl)piperidin-1-yl)-6-(2,2,2-trifluoroethoxy)-3-pyridinecarboxamide] | -17 | >45 | 37 | – | –
CN(NC(=O)c1cnc(OCC(F)(F)F)c(C2CCN(C(=O)OC(C)(C)C)CC2)c1)c1ccc(F)cc1 [Example 40, 5-[N′-(4-fluoro-phenyl)-N′-methyl-hydrazinocarbonyl]-2-(2,2,2-trifluoro-ethoxy)-3′,4′,5′,6′-tetrahydro-2′H-[3,4′]bipyridinyl-1′-carboxylic acid tert-butyl ester] | 3 | – | 50 | 0.68 | –
CN(NC(=O)c1cnc(OCC(F)(F)F)c(C2CCCCC2)c1)c1ccccc1 [Example 20, 5-cyclohexyl-N′-methyl-N′-phenyl-6-(2,2,2-trifluoroethoxy)-3-pyridinecarboxylic acid hydrazide] | 9 | >45 | 39 | – | –
O=C(NN1CCC(O)CC1)c1cnc(OCC(F)(F)F)c(-c2ccc(Cl)cc2)c1 [Example 6, 5-(4-chlorophenyl)-N-(4-hydroxypiperidin-1-yl)-6-(2,2,2-trifluoroethoxy)-3-pyridinecarboxamide] | -9 | – | – | 1.11 | 11
COC[C@@H]1CCCN1NC(=O)c1cnc(OCC(F)(F)F)c(C2CCCC2)c1 [Example 17, (S)-5-cyclopentyl-N-(2-(methoxymethyl)pyrrolidin-1-yl)-6-(2,2,2-trifluoroethoxy)-3-pyridinecarboxamide] | 3 | – | 33 | 0.12 | –
CN(NC(=O)c1cnc(OCC2CC2)c(C2CC2)c1)c1ccccc1 [Example 43, 5-cyclopropyl-6-cyclopropylmethoxy-nicotinic acid N′-methyl-N′-phenyl-hydrazide] | 39 | – | 28 | 1.04 | –
CC(C)(C)OC(=O)N1CCC(c2cc(C(=O)NN3CCC(CCO)CC3)cnc2OCC(F)(F)F)CC1 [Example 39, 5-[4-(2-hydroxy-ethyl)-piperidin-1-ylcarbamoyl]-2-(2,2,2-trifluoro-ethoxy)-3′,4′,5′,6′-tetrahydro-2′H-[3,4′]bipyridinyl-1′-carboxylic acid tert-butyl ester] | -5 | – | -3 | 1.8 | –
C[C@@H]1CN(NC(=O)c2cnc(OCC3CC3)c(C3CC3)c2)C[C@H](C)O1 [Example 45, 5-cyclopropyl-6-cyclopropylmethoxy-N-((2R,6S)-2,6-dimethyl-morpholin-4-yl)-nicotinamide] | 17 | – | 19 | 9.4 | –
O=C(NN1CCS(=O)(=O)CC1)c1cnc(OCC(F)(F)F)c(C2CC2)c1 [Example 31, 5-cyclopropyl-N-(1,1-dioxo-1λ6-thiomorpholin-4-yl)-6-(2,2,2-trifluoro-ethoxy)-nicotinamide] | -14 | >45 | -2 | – | –
CN(NC(=O)c1cnc(OCC2CC2)c(C2CC2)c1)c1ccc(C#N)cc1 [Example 53, 5-cyclopropyl-6-cyclopropylmethoxy-nicotinic acid N′-(4-cyano-phenyl)-N′-methyl-hydrazide] | 48 | >45 | 47 | – | –
COC[C@@H]1CCCN1NC(=O)c1cnc(OCC(F)(F)F)c(C2CCCCC2)c1 [Example 23, 5-cyclohexyl-N—((S)-2-methoxymethyl-pyrrolidin-1-yl)-6-(2,2,2-trifluoro-ethoxy)-3-pyridinecarboxamide] | 17 | >45 | 39 | – | –
CN(NC(=O)c1cnc(OCC(F)(F)F)c(C2CC2)c1)c1ccccc1 [Example 30, 5-cyclopropyl-6-(2,2,2-trifluoro-ethoxy)-nicotinic acid N′-methyl-N′-phenyl-hydrazide] | 13 | >45 | 24 | – | –
